Data taken from patent publication US20100210649A1, “PYRIDAZINONES AND FURAN-CONTAINING COMPOUNDS” (Sloan-Kettering Institute for Cancer Research, priority 2006, published 2010).
Where two headings read alike, the source gives them in different places.

Legend:
Type in all cases: cell-based, human
H3255 = test: Non Small Cell Lung Cancer proliferation assay (Alamar Blue reduction), H3255; conditions: Homo sapiens, NCI-H3255, primary screening, 10 μM compound in 1% DMSO (v/v)
Description: (§1) These cells have a doubling time of 1-2 days. All cell types are adherent and grow in colonies. The cells should be kept at a density between 50,000 cells/mL -500,000 cells/mL to provide for optimum growth and adequate nutrition. The cell line should be maintained at 37° C. in a humidified atmosphere with 5% CO2 in a sterile cell culture incubator.
(§2) Non Small Cell Lung Cancer Proliferation Assay.
(§3) High Controls for this assay are made by treating Non Small Cell Lung Cancer cells with 5 ul of 10% DMSO. [Final concentration in this assay is 1% DMSO].
(§4) Important Note: All compounds for testing in this assay should be done at the final concentration of 1% DMSO.
(§5) After addition, the cells are placed in cell culture incubator at 37° C. for 48 hours for complete treatment.
(§6) After drug treatment, cytotoxicity is measured by Alamar Blue reduction.
(§7) The cells are incubated for 48 hours at 37° C. to complete the Alamar Blue reduction.
(§8) The final step in the assay is to measure the amount of Alamar Blue reduction. […] The Alamar Blue fluorescence is measured at an excitation of 530 nm and emission of 590 nm.
(§9) For the NSCLC project, the cell based assay was screened against a small molecule library of approximately 200,000 compounds. The compound library is stored in our automated robotic freezer (Biophile) at −20° C. in 100% DMSO. Compound freeze and thaw cycles are kept to a minimum. […] This assay was performed on a fully automated linear track robotic platform (CRS F3 Robot System, Thermo Electron Corp., Ontario, Canada) utilizing several integrated peripherals for plate handling, liquid dispensing, and readout detection. […] The microplates are then placed at 37° C. for 48 hours to complete treatment of cells with compounds. Next, 5 ul of alamar blue was added using a liquid dispenser (Flexprop Precision Dispenser, Perkin Elmer, Mass., USA) and incubated for 48 hours at 37° C. The alamar blue prompt fluorescence was measured on Victor V (Victor^3 V, Perkin Elmer, Mass., USA) and output data files were loaded into ORIS (Oncology Research Informatics System, MSKCC, NY, USA), a screening data acquisition and analysis platform.
(§10) The dose response studies were done with the following standard procedure. First, the cells were counted and dispensed at 250 cells/well into 384-well microplates with compound. The cells were incubated for 48 hours at 37 C to complete treatment, and then alamar blue was added for an additional 48 hours. Finally, alamar blue reduction was measured and the data was loaded into ORIS, our data screening acquisition platform.

H1975 = test: Non Small Cell Lung Cancer proliferation assay (Alamar Blue reduction), H1975; conditions: Homo sapiens, NCI-H1975, primary screening, 10 μM compound in 1% DMSO (v/v)
Description: as §1, §2, §3, §4, §5, §6, §7, §8, §9, §10

H1650 = test: Non Small Cell Lung Cancer proliferation assay (Alamar Blue reduction), H1650; conditions: Homo sapiens, NCI-H1650, primary screening, 10 μM compound in 1% DMSO (v/v)
Description: as §1, §2, §3, §4, §5, §6, §7, §8, §9, §10

H2030 = test: Non Small Cell Lung Cancer proliferation assay (Alamar Blue reduction), H2030; conditions: Homo sapiens, NCI-H2030, primary screening, 10 μM compound in 1% DMSO (v/v)
Description: as §1, §2, §3, §4, §5, §6, §7, §8, §9, §10

[1] = read-out: percentage inhibition H3255
[2] = read-out: percentage inhibition H1975
[3] = read-out: percentage inhibition H1650
[4] = read-out: percentage inhibition H2030
[5] = H3255, read-out: PRIMARY HTS [%] H3255 (percentage inhibition)
[6] = H1975, read-out: PRIMARY HTS [%] H1975 (percentage inhibition)
[7] = H1650, read-out: PRIMARY HTS [%] H1650 (percentage inhibition)
[8] = H2030, read-out: PRIMARY HTS [%] H2030 (percentage inhibition)

| Compound | inhibition at 10 µM (H3255; [1]) | inhibition at 10 µM (H1975; [2]) | inhibition at 10 µM (H1650; [3]) | inhibition at 10 µM (H2030; [4]) | inhibition at 10 µM (H3255; [5]) | inhibition at 10 µM (H1975; [6]) | inhibition at 10 µM (H1650; [7]) | inhibition at 10 µM (H2030; [8]) |
| --- | --- | --- | --- | --- | --- | --- | --- | --- |
| Nc1ccc(Sc2cnn(-c3ccccc3)c(=O)c2Cl)cc1 [compound 181612] | 11% | -11% | 7% | 11% |  |  |  |  |
| Cc1ccc(C(=O)Nc2ccc(NC(=O)c3ccco3)c(C)c2)c(Cl)c1 [compound 61302] |  |  |  |  | 2% | 16% | 13% | -2% |
| CCN(Cc1ccccc1)C(=O)c1ccc([N+](=O)[O-])o1 [compound 78535] |  |  |  |  | 8% | -2% | 41% | 26% |
| CSc1cnn(-c2ccccc2)c(=O)c1SCc1ccccc1 [compound 224764] | -32% | -5% | 21% | -10% |  |  |  |  |
| Cc1ccc(-n2ncc(SCc3ccccc3)c(Cl)c2=O)cc1 [compound 182830] | -4% | 10% | 20% | 3% |  |  |  |  |
| CC(=O)N(C(C)=O)c1c(Cl)cnn(-c2ccccc2)c1=O [compound 187116] | 27% | 90% | 31% | 4% |  |  |  |  |
| CSc1cnn(-c2ccccc2)c(=O)c1SC [compound 104423] | 1% | -20% | -11% | -3% |  |  |  |  |
| O=c1c(SCc2ccc(Cl)cc2Cl)c(SCc2ccc(Cl)cc2Cl)cnn1-c1ccccc1 [compound 208619] | -19% | 1% | -4% | -12% |  |  |  |  |
| O=c1c(Cl)c(N2CCN(CCO)CC2)cnn1-c1cccc(Cl)c1 [compound 194617] | -5% | 9% | -9% | -4% |  |  |  |  |
| O=c1c(SCc2ccc(Cl)cc2)c(SC2CCCCO2)cnn1-c1ccccc1 (stereo not drawn) [compound 195063] | -6% | 34% | 22% | -6% |  |  |  |  |
| Cc1ccc(-n2nc(C#N)c(-c3ccccc3)c(C#N)c2=O)cc1 [compound 224358] | -14% | -9% | -4% | -2% |  |  |  |  |
| COc1cc(Cl)nn(-c2ccccc2)c1=O [compound 206569] | 22% | 3% | -2% | 7% |  |  |  |  |
| O=C(Cc1ccccc1)Oc1ccc(=O)n(-c2ccccc2)n1 [compound 180651] | 35% | 13% | 21% | 11% |  |  |  |  |
| COc1ccc(Sc2cnn(-c3ccccc3)c(=O)c2Cl)cc1 [compound 181862] | 22% | 3% | 7% | 9% |  |  |  |  |
| Cc1ccc(-n2nc(C(=O)O)c(/C=C/c3ccc(Cl)cc3Cl)c(C#N)c2=O)cc1C [compound 227626] | 71% | -14% | -15% | 0% |  |  |  |  |
| O=C(Nc1cccc([N+](=O)[O-])c1)c1ccco1 [compound 87246] |  |  |  |  | 5% | -3% | 8% | 9% |
| O=c1c(Cl)c(Cl)cnn1-c1ccc([N+](=O)[O-])cc1 [compound 103529] | 1% | 97% | -13% | 15% |  |  |  |  |
| COc1cnn(-c2cccc(C(F)(F)F)c2)c(=O)c1Cl [compound 103872] | -25% | 9% | 17% | 2% |  |  |  |  |
